Data reported in PubChem BioAssay (NCI).
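Dose response: 5 concentrations. Exposure: 48 h. Format: 96-well plates. Endpoint: linear interpolation; highest concentration if not reached. GI50 marks 50% less growth. TGI denotes the concentration required for complete inhibition of growth.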

What was measured:
Assay in all cases: NCI tumour cell line growth inhibition, 48 h
[1] = system: 786-0 renal
[2] = system: A498 renal
[3] = system: A549 NSCLC
[4] = system: ACHN renal
[5] = system: BT-549 breast
[6] = system: CAKI-1 renal
[7] = system: CCRF-CEM leukemia
[8] = system: COLO 205 colon
[9] = system: DU-145 prostate
[10] = system: EKVX NSCLC
[11] = system: HCC-2998 colon
[12] = system: HCT-116 colon
[13] = system: HCT-15 colon
[14] = system: HL-60(TB) leukemia
[15] = system: HOP-62 NSCLC
[16] = system: HOP-92 NSCLC
[17] = system: HS 578T breast
[18] = system: HT29 colon
[19] = system: IGROV1 ovarian
[20] = system: K-562 leukemia
[21] = system: KM12 colon
[22] = system: LOX IMVI melanoma
[23] = system: M14 melanoma
[24] = system: MALME-3M melanoma
[25] = system: MCF7 breast
[26] = system: MDA-MB-231 breast
[27] = system: MDA-MB-435
[28] = system: MDA-MB-468 breast
[29] = system: MOLT-4 leukemia

Cc1ccc(NC(=O)[C@]23CCC(C)(C)CC2C2=CCC4[C@@]5(C)C[C@@H](O)[C@H](O)[C@@](C)(CO)C5CC[C@@]4(C)[C@]2(C)CC3)cc1 (some centres not stated)
GI50 [1]: 12.8 µM | TGI [1]: 26.4 µM | GI50 [2]: 14.1 µM | TGI [2]: 27.4 µM | GI50 [3]: 12.9 µM | TGI [3]: > 100 µM | GI50 [4]: 10.4 µM | TGI [4]: 22.1 µM | GI50 [5]: 12.4 µM | TGI [5]: 25.4 µM | GI50 [6]: 5.1 µM | TGI [6]: 20.4 µM | GI50 [7]: 11.1 µM | TGI [7]: 38.9 µM | GI50 [8]: 12.1 µM | TGI [8]: 27.5 µM | GI50 [9]: 15.2 µM | TGI [9]: 32.6 µM | GI50 [10]: 9.25 µM | TGI [10]: 23.9 µM | GI50 [11]: 6.91 µM | TGI [11]: 21 µM | GI50 [12]: 7.24 µM | TGI [12]: 20 µM | GI50 [13]: 6.9 µM | TGI [13]: 19.9 µM | GI50 [14]: 5.44 µM | TGI [14]: 36.5 µM | GI50 [15]: 14.3 µM | TGI [15]: 29.1 µM | GI50 [16]: 8.43 µM | TGI [16]: 23.1 µM | GI50 [17]: 12.4 µM | TGI [17]: 48.6 µM | GI50 [18]: 7.44 µM | TGI [18]: 20.1 µM | GI50 [19]: 11.1 µM | TGI [19]: 23.8 µM | GI50 [20]: 12.1 µM | TGI [20]: 87.6 µM | GI50 [21]: 12.8 µM | TGI [21]: 28.2 µM | GI50 [22]: 5.27 µM | TGI [22]: 19.1 µM | GI50 [23]: 12.4 µM | TGI [23]: 25.2 µM | GI50 [24]: 12.1 µM | TGI [24]: 25.1 µM | GI50 [25]: 4.12 µM | TGI [25]: 15.5 µM | GI50 [26]: 12.2 µM | TGI [26]: 26.1 µM | GI50 [27]: 11.5 µM | TGI [27]: 23.7 µM | GI50 [28]: 4.52 µM | TGI [28]: 18.1 µM | GI50 [29]: 6.88 µM
